Source: patent publication US9574188B2, “DNA restriction library tagging and analysis” (Harborgen Biotech LLC, priority 2014, dated 2017)

Test system: RKO cell line
Assay: Effect of methylation inhibitor on global methylation percentage (restriction library qPCR)
Assay type: cell-based
Protocol: The following steps are performed to create (including amplify) the restriction library, and measure methylation level: • 1. Add equal amount of a genomic DNA into two tubes containing the Msp I restriction library making system or Hpa II restriction library making system. • 2. Incubate the two tubes in PCR instrument. Repeat the following thermal cycle 100 times: 22 degree Celsius for 2 minutes, 16 degree 2 minutes, and 4 degree 2 minutes.
• Hpa II, Msp I and Cla I have more than 75% activity left at 22 degree. The generated restriction fragments and adaptors have the compatible CG-5′ overhang that contain phosphate at 5′ ends. At 4 degree Celsius, the compatible overhangs anneal together then T4 DNA ligases join the two annealed ends. • 3. […] Consequently the hetero-ligation is no longer recognizable by Cla I, Msp I or Hpa II. • 4. […] The proportion of hetero-ligation products becomes higher and higher, while the proportion of self-ligation products becomes lower and lower accompanied with repeating the cycle digestion-ligation reaction. • 6. All restriction sites in the Msp I restriction library making system disappear after hetero-ligation between restriction fragments and the adapters at reaction end, but not the methylated restriction sites (CCGG) in Hpa II restriction library making system. • 7. […]

With Nc1ncn([C@H]2C[C@H](O)[C@@H](CO)O2)c(=O)n1 [DAC, 5-aza-2′ deoxycytidine] the “methylation percentage of RKO cells after methylation inhibitor treatment” value (5 μM for 3 days prior to harvest, decreased from 96.7% (before treatment)) was 35.6% and the “effect on the methylation level of RKO cell line” value (FIG. 9 legend) was “significantly affected”.
